System: cell surface flk-1
Experiment: FACS analysis of blockade of anti-flk-1 MAb binding to C441 cells
Design: species or system mouse/human
Settings: cells preincubated with 10 μg/ml heparin
Description: For binding studies, C441 cells were removed with 2 mM EDTA in PBS, washed with cold Hanks balanced salt solution supplemented with 1% BSA (HBSS-BSA) and then resuspended in 100 μl of the same buffer at a concentration of 1 million cells per sample. Where indicated, cells were incubated with 2 μM oligodeoxynucleotides of 10 μg/ml heparin. After a 30 minute incubation on ice, cells were washed and reincubated for 30 minutes with 10 μg of the appropriate MAb. After washing, a 1:40 dilution of goat anti-mouse lgG conjugated to FITC (TAGO) was added for a final 30 minute incubation on ice. Cells were then analyzed on a Coulter Epics Elite Cytometer.

With heparin the “binding of anti-flk-1 MAb 73 to C441 cells” value was “inhibition” and the “binding of anti-flk-1 MAb 115 to C441 cells” value was “inhibition”.

Source: US6030955A, “Methods of affecting intracellular phosphorylation of tyrosine using phosphorothioate oligonucleotides, and antiangiogenic and antiproliferative uses thereof” (The Trustees of Columbia University in The City of New York …, priority 1996, dated 2000)
